Three molecules from paper PMC4698665, “Functional Analysis of Esterase TCE2 Gene from Tetranychus cinnabarinus (Boisduval) involved in Acaricide Resistance” (Scientific Reports, 2016) can be followed below.

Data set [1] concerns the target T1, recombinant TCE2 (Tetranychus cinnabarinus, UniProt B3TFG7).
T1 construct: pCold II (vector His tag), E. coli BL21(DE3), Ni-NTA purified; about 63 kDa
T1 sequence (B3TFG7 24-560): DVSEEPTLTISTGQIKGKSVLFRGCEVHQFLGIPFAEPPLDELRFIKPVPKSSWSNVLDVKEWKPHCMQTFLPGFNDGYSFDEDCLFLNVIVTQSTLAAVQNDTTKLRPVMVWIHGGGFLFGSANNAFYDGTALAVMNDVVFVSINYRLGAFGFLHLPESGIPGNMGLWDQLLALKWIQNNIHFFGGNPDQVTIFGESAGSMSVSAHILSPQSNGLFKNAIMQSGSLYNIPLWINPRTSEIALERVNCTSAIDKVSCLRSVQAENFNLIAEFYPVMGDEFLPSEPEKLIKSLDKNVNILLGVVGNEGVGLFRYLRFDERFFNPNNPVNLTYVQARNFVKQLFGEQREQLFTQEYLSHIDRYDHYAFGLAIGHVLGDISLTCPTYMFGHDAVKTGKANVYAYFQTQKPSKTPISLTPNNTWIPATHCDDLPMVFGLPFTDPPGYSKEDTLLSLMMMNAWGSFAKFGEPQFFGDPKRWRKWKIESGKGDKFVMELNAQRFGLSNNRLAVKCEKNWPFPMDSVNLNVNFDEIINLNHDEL
The experiment in a line: Dixon plot, colorimetric esterase assay (Fast blue B). The class given is biochemical.

Data set [2] addresses T1, recombinant TCE2. Kind of data set: colorimetric esterase inhibition assay, microplate (Fast blue B, […] nm). The class given is biochemical.
Substrate in data set [3]: CC(=O)Oc1cccc2ccccc12
The experiment in a line: purified protein. The class given is biochemical, Tetranychus cinnabarinus. Conditions: 0.04 M PBS pH 7.4, 30 °C, 10 min.

Take `COCCOC(=O)C(C#N)(C(=O)c1ccccc1C(F)(F)F)c1ccc(C(C)(C)C)cc1` (stereo not drawn) [cyflumetofen]: the Ki in data set [1] is 182 ± 17.7 µM. Further, the IC50 in data set [2] was found to be 129 ± 12.7 µM.

In the case of `CC1(C)C(C(=O)OC(C#N)c2cccc(Oc3ccccc3)c2)C1(C)C` (stereo not drawn) [fenpropathrin], the Ki in data set [1] was determined as 356 ± 35.4 µM. Besides, the half-maximal inhibitory concentration (IC50) in data set [2] came to 235 ± 15.3 µM.

B1: recombinant TCE2 (Tetranychus cinnabarinus) (protein)
chain: DVSEEPTLTISTGQIKGKSVLFRGCEVHQFLGIPFAEPPLDELRFIKPVPKSSWSNVLDVKEWKPHCMQTFLPGFNDGYSFDEDCLFLNVIVTQSTLAAVQNDTTKLRPVMVWIHGGGFLFGSANNAFYDGTALAVMNDVVFVSINYRLGAFGFLHLPESGIPGNMGLWDQLLALKWIQNNIHFFGGNPDQVTIFGESAGSMSVSAHILSPQSNGLFKNAIMQSGSLYNIPLWINPRTSEIALERVNCTSAIDKVSCLRSVQAENFNLIAEFYPVMGDEFLPSEPEKLIKSLDKNVNILLGVVGNEGVGLFRYLRFDERFFNPNNPVNLTYVQARNFVKQLFGEQREQLFTQEYLSHIDRYDHYAFGLAIGHVLGDISLTCPTYMFGHDAVKTGKANVYAYFQTQKPSKTPISLTPNNTWIPATHCDDLPMVFGLPFTDPPGYSKEDTLLSLMMMNAWGSFAKFGEPQFFGDPKRWRKWKIESGKGDKFVMELNAQRFGLSNNRLAVKCEKNWPFPMDSVNLNVNFDEIINLNHDEL
notes: pCold II (vector His tag), E. coli BL21(DE3), Ni-NTA purified; about 63 kDa
Turning to B1, in data set [3], the Michaelis constant (Km) was 30.5 ± 5.9 µM and the Vmax turned out to be 0.448 µmol/min/mg.
